Laboratory results from patent US8134015B2, “Compound inhibiting in vivo phosphorous transport and medicine containing the same” (Kyowa Hakko Kirin Co., Ltd., priority 2003, dated 2012).

Molecular target: T1, rat NaPi-2b (Rattus norvegicus, UniProt Q9JJ09)
T1 construct: expressed in transfected cells; host or cells: Xenopus oocytes injected with cRNA
T1 sequence (Q9JJ09 1-695): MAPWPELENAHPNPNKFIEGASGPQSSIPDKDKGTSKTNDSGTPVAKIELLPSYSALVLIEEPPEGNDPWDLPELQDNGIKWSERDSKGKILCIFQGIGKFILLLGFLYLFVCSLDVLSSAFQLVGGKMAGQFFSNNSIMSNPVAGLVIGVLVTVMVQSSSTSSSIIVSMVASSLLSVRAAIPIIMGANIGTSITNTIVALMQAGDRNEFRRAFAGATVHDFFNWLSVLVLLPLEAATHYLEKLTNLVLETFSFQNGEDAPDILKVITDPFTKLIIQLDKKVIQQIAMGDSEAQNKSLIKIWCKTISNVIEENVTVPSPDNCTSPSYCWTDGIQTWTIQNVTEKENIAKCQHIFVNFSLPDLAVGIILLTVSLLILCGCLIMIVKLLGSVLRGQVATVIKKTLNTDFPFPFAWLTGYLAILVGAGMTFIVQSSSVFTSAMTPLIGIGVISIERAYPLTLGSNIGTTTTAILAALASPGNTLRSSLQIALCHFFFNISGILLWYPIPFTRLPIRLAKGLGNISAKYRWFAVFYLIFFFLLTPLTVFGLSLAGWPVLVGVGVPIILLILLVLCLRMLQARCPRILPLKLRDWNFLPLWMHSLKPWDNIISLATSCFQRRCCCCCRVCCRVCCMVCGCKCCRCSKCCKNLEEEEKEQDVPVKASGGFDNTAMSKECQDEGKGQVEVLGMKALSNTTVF
Assay: Sodium-dependent phosphate uptake of Xenopus oocytes which expressed NaPi-2b (32P)
Format: cell-based
Details: for IC50: Xenopus oocytes expressing rat NaPi-2b, 32P radioactive phosphorus, read-out: IC50 (phosphate uptake inhibitory activity); for inhibition at 300 µM: phosphate uptake, oocytes expressing rat NaPi-2b, determined from inhibition curve
In short: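 Rat NaPi-2b cloned from small-intestine cDNA; cRNA injected into Xenopus oocytes, expression for 2 days. Phosphate uptake inhibition measured with 32P; percent inhibition at 300 μM and 100 μM read from the same inhibition curve.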

IC50 [µM]	inhibition at 300 µM [%]	SMILES
9.65		O=C(Nc1ccc(Cl)cc1C(=O)N/N=C/c1ccc(O)cc1)c1cccc(CN2CCC(N3CCCCC3)CC2)c1 [Compound 377, 3-[1,4′]Bipiperidinyl-1′-ylmethyl-N-[4-chloro-2-(4-hydroxy-benzylidene-hydrazinocarbonyl)-phenyl]-benzamide]
1.09		Cc1csc(NC(=O)c2cccc(CSCCCO)c2)c1C(=O)N/N=C/c1cccc(F)c1 [Compound 560, N-[3-(3-Fluoro-benzylidene-hydrazinocarbonyl)-4-methyl-thiophen-2-yl]-3-(3-hydroxy-propylsulfanylmethyl)-benzamide]
	49.4	O=C(Nc1ccccc1C(=O)N/N=C/c1ccccc1F)c1ccccc1F [Compound 236, 2-Fluoro-N-[2-(2-fluoro-benzylidene-hydrazinocarbonyl)-phenyl]-benzamide]
4.52		Cc1cccc(/C=N/NC(=O)c2ccccc2NC(=O)c2ccncc2)c1 [Compound 136, N-[2-(3-Methyl-benzylidene-hydrazinocarbonyl)-phenyl]-isonicotinamide]
< 3		Cc1ccc(/C=N/NC(=O)c2cc(Br)ccc2NC(=O)c2cccc(C[S+]([O-])CCO)c2)cc1 (centres unmarked) [Compound 677, N-[4-Bromo-2-(4-methyl-benzylidene-hydrazinocarbonyl)-phenyl]-3-(2-hydroxy-ethanesulfinylmethyl)-benzamide]
9.2		COc1ccc(/C=N/NC(=O)c2cc(Cl)ccc2NC(=O)c2ccc(CN(C)CCO)cc2)cc1 [Compound 419, N-[4-Chloro-2-(4-methoxy-benzylidene-hydrazinocarbonyl)-phenyl]-4-{[(2-hydroxy-ethyl)-methyl-amino]-methyl}-benzamide]
7.65		CCN(CCO)Cc1ccc(C(=O)Nc2ccc(Cl)cc2C(=O)N/N=C/c2ccc(C)cc2)cc1 [Compound 435, N-[4-Chloro-2-(4-methyl-benzylidene-hydrazinocarbonyl)-phenyl]-4-{[ethyl-(2-hydroxy-ethyl)-amino]-methyl}-benzamide]
2		O=C(Nc1ccccc1C(=O)N/N=C/c1cccc(O)c1)c1cccc(F)c1 [Compound 85, 3-Fluoro-N-[2-(3-hydroxy-benzylidene-hydrazinocarbonyl)-phenyl]-benzamide]
< 3		O=C(Nc1sc2c(c1C(=O)N/N=C/c1cccc(F)c1)CCCC2)c1cccc(CN2CCN(CCO)CC2)c1 [Compound 624, N-[3-(3-Fluoro-benzylidene-hydrazinocarbonyl)-4,5,6,7-tetrahydro-benzo[b]thiophen-2-yl]-3-[4-(2-hydroxy-ethyl)-piperazin-1-ylmethyl]-benzamide]
4.35		Cc1cccc(/C=N/NC(=O)c2cc(Br)ccc2NC(=O)c2cccs2)c1 [Compound 159, Thiophene-2-carboxylic acid [4-bromo-2-(3-methyl-benzylidene-hydrazinocarbonyl)-phenyl]-amide]
< 3		Cc1ccc(/C=N/NC(=O)c2cc(Cl)ccc2NC(=O)c2cccc(CSc3nnnn3CCN(C)C)c2)cc1C [Compound 466, N-[4-Chloro-2-(3,4-dimethyl-benzylidene-hydrazinocarbonyl)-phenyl]-3-[1-(2-dimethylamino-ethyl)-1H-tetrazol-5-ylsulfanylmethyl]-benzamide]
1.04		CCN(CC)CCN(C)Cc1cccc(C(=O)Nc2ccc(Cl)cc2C(=O)N/N=C/c2ccc(C)cc2)c1 [Compound 382, N-[4-Chloro-2-(4-methyl-benzylidene-hydrazinocarbonyl)-phenyl]-3-{[(2-diethylamino-ethyl)-methyl-amino]-methyl}-benzamide]
13.2		CCN(CC)CCN(CCN(CC)CC)Cc1cccc(C(=O)Nc2ccc(N3CCCCC3)cc2C(=O)N/N=C/c2cccc(F)c2)c1 [Compound 908, 3-{[Bis-(2-diethylamino-ethyl)-amino]-methyl}-N-[2-(3-fluoro-benzylidene-hydrazinocarbonyl)-4-piperidin-1-yl-phenyl]-benzamide]
	88.5	Cc1csc(NC(=O)c2cccc(CSCCS(=O)(=O)O)c2)c1C(=O)N/N=C/c1ccc(Cl)c(C(F)(F)F)c1 [Compound 784, 2-{3-[3-(4-Chloro-3-trifluoromethyl-benzylidene-hydrazinocarbonyl)-4-methyl-thiophen-2-ylcarbamoyl]-benzylsulfanyl}-ethanesulfonic acid]
25.3		O=C(Nc1ccc(Br)cc1C(=O)N/N=C/c1cccc(OCCO)c1)c1ccncc1 [Compound 350, N-{4-Bromo-2-[3-(2-hydroxy-ethoxy)-benzylidene-hydrazinocarbonyl]-phenyl}-isonicotinamide]
2.07		Cc1ccc(/C=N/NC(=O)c2cc(Br)ccc2NC(=O)c2ccc(C)cc2)cc1 [Compound 494, N-[4-Bromo-2-(4-methyl-benzylidene-hydrazinocarbonyl)-phenyl]-4-methyl-benzamide]
20.4		COc1ccc(/C=N/NC(=O)c2cc(N3CCN(C)CC3)ccc2NC(=O)c2cccc(CSCCO)c2)cc1 [Compound 1073, 3-(2-Hydroxy-ethylsulfanylmethyl)-N-[2-(4-methoxy-benzylidene-hydrazinocarbonyl)-4-(4-methyl-piperazin-1-yl)-phenyl]-benzamide]
	73.7	COc1ccc(/C=N/NC(=O)c2cscc2NC(=O)c2cccc(CN(CC(C)O)CC(C)O)c2)cc1 (centres unmarked) [Compound 979, 3-{[Bis-(2-hydroxy-propyl)-amino]-methyl}-N-[4-(4-methoxy-benzylidene-hydrazinocarbonyl)-thiophen-3-yl]-benzamide]
24.7		COc1ccc(/C=N/NC(=O)c2cc(Cl)ccc2NC(=O)c2cccc(CN3CCC(N4CCCCC4)CC3)c2)cc1 [Compound 375, 3-[1,4′]Bipiperidinyl-1′-ylmethyl-N-[4-chloro-2-(4-methoxy-benzylidene-hydrazinocarbonyl)-phenyl]-benzamide]
	50.4	COc1ccc(C(=O)Nc2cc(OC)c(OC)cc2C(=O)N/N=C/c2ccccc2C)cc1OC [Compound 230, N-[4,5-Dimethoxy-2-(2-methyl-benzylidene-hydrazinocarbonyl)-phenyl]-3,4-dimethoxy-benzamide]
< 1		CCN(CC)CCN(C)Cc1cccc(C(=O)Nc2ccc(N3CCSCC3)cc2C(=O)N/N=C/c2ccc(Cl)c(C(F)(F)F)c2)c1 [Compound 929, N-[2-(4-Chloro-3-trifluoromethyl-benzylidene-hydrazinocarbonyl)-4-thiomorpholin-4-yl-phenyl]-3-{[(2-diethylamino-ethyl)-methyl-amino]-methyl}-benzamide]
1.22		COc1ccc(/C=N/NC(=O)c2cc(N3CCCC3)ccc2NC(=O)c2cccc(CSCCO)c2)cc1 [Compound 921, 3-(2-Hydroxy-ethylsulfanylmethyl)-N-[2-(4-methoxy-benzylidene-hydrazinocarbonyl)-4-pyrrolidin-1-yl-phenyl]-benzamide]
29		Cc1ccc(/C=N/NC(=O)c2cc(F)ccc2NC(=O)c2cc(F)ccc2NC(=O)c2cccc(CN(CC(C)O)CC(C)O)c2)cc1C (centres unmarked) [Compound 986, 2-(3-{[Bis-(2-hydroxy-propyl)-amino]-methyl}-benzoylamino)-N-[2-(3,4-dimethyl-benzylidene-hydrazinocarbonyl)-4-fluoro-phenyl]-5-fluoro-benzamide]
